The source of these data is publication PMC7034112, “Bioorganometallic derivatives of 4-hydrazino-benzenesulphonamide as carbonic anhydrase inhibitors: synthesis, characterisation and biological evaluation” (Journal of Enzyme Inhibition and Medicinal Chemistry, 2020).

Experiment in all cases: stopped-flow CO2 hydrase assay
Holding throughout (assay type): biochemical
Common to all, as to conditions: CO2 […], […] Hepes pH […] Na2SO4, […] h preincubation at room temperature

One assay has as its target T1, hCA IX (Homo sapiens, UniProt Q16790).
T1 construct: gene CA9; recombinant, obtained in-house
The text has this:
stopped-flow CO2 hydrase assay on hCA IX

Another assay has as its target T2, hCA II (Homo sapiens, UniProt P00918).
T2 construct: gene CA2; recombinant, obtained in-house
The text has this:
stopped-flow CO2 hydrase assay on hCA II

In a further assay the target is T3, hCA I (Homo sapiens, UniProt P00915).
T3 construct: gene CA1; recombinant, obtained in-house
T3 sequence (P00915 2-261): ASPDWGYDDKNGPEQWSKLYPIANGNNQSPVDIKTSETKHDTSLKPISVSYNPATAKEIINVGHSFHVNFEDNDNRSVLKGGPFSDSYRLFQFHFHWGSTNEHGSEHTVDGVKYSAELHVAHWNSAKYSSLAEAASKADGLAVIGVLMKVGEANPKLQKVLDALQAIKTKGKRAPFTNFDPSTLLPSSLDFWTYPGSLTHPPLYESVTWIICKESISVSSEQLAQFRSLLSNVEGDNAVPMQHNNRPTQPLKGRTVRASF
The text has this:
stopped-flow CO2 hydrase assay on hCA I

The next assay has as its target T4, hCA XII (Homo sapiens, UniProt O43570).
T4 construct: gene CA12; recombinant, obtained in-house
The text has this: stopped-flow CO2 hydrase assay on hCA XII

T4 sequence (O43570 25-354): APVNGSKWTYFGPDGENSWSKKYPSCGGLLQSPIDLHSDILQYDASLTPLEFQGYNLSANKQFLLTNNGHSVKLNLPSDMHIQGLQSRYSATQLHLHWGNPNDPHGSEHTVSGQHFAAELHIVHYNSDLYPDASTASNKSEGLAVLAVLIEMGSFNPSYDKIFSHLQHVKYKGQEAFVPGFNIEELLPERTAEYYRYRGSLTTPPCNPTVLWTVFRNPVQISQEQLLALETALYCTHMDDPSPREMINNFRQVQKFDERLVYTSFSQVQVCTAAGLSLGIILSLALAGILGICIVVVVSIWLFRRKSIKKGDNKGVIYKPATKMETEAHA

One may read the Ki as the equilibrium dissociation constant of an inhibitor or competing ligand from its target. In the case of “[{(η^5-C5H4)-CH=N–N(H)-C6H4-4-SO2NH2}]FeCp [3a]”, the Ki on hCA IX came to 49.9 nM; at hCA II, 1.7 nM; on hCA I it was 13.2 nM; on hCA XII, 4.9 nM.

On to “[{(η^5-C5H4)-CH=N–N(H)-C6H4-4-SO2NH2}]re(CO)3 [1a]”, for which the Ki at hCA IX was 580 nM; at hCA II, 22.4 nM; on hCA I, 7.5 nM; at hCA XII, 24.4 nM.

As to “[{(η^5-C5H4)-C(CH3)=N–N(H)-C6H4-4-SO2NH2}]re(CO)3 [1b]”, the Ki was determined as 25 nM at hCA IX, 9.7 nM on hCA II, 3.7 nM at hCA I and 3.8 nM at hCA XII.

“[{(η^5-C5H4)-C(CH3)=N–N(H)-C6H4-4-SO2NH2}]Mn(CO)3 [2b]”: the Ki came out at 221 nM at hCA IX, 11.2 nM on hCA II, 269 nM on hCA I and 3.3 nM on hCA XII.

For the substance “[{(η^5-C5H4)-C(CH3)=N-N(H)-C6H4-4-SO2NH2}]FeCp [3b]”, the Ki turned out to be 41.9 nM on hCA IX, 9.3 nM at hCA II, 3.6 nM at hCA I and 1.9 nM at hCA XII.

For the substance “[{(η^5-C5H4)-CH=N–N(H)-C6H4-4-SO2NH2}]Mn(CO)3 [2a]”, the Ki was 2.1 nM at hCA IX, 8.2 nM at hCA II, 5.9 nM on hCA I and 3.1 nM at hCA XII.
